Measurements published in PubChem BioAssay (NCI).
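Briefly, cells in 96-well plates were exposed to five compound concentrations for 48 h, and endpoints were estimated by linear interpolation. Abbreviation: GI50, concentration required for 50% inhibition of growth. TGI is the concentration that stops growth completely.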

Columns and labels:
Assay in all cases: DTP human tumour cell line panel, 48 h
[1] = test system: HL-60(TB) leukemia
[2] = test system: UACC-257 melanoma
[3] = test system: NCI-H226 lung
[4] = test system: OVCAR-4 ovarian
[5] = test system: HS 578T breast
[6] = test system: HT29 colon
[7] = test system: SN12C renal
[8] = test system: A549 NSCLC
[9] = test system: TK-10 renal
[10] = test system: KM12 colon
[11] = test system: EKVX NSCLC
[12] = test system: SW-620 colon
[13] = test system: NCI-H522 lung
[14] = test system: RPMI-8226 leukemia
[15] = test system: MDA-MB-231 breast
[16] = test system: CAKI-1 renal
[17] = test system: SNB-75 CNS
[18] = test system: SK-MEL-28 melanoma
[19] = test system: HOP-92 NSCLC
[20] = test system: NCI-H23 lung
[21] = test system: IGROV1 ovarian
[22] = test system: MOLT-4 leukemia
[23] = test system: UO-31 renal
[24] = test system: SF-295 CNS
[25] = test system: SF-268 CNS
[26] = test system: ACHN renal
[27] = test system: HCT-15 colon
[28] = test system: OVCAR-3 ovarian
[29] = test system: M14 melanoma
[30] = test system: MDA-MB-435
[31] = test system: LOX IMVI melanoma
[32] = test system: PC-3 prostate
[33] = test system: U251 CNS
[34] = test system: OVCAR-5 ovarian
[35] = test system: RXF 393 renal
[36] = test system: UACC-62 melanoma
[37] = test system: CCRF-CEM leukemia
[38] = test system: HCT-116 colon
[39] = test system: COLO 205 colon
[40] = test system: 786-0 renal
[41] = test system: MCF7 breast
[42] = test system: A498 renal
[43] = test system: SF-539 CNS
[44] = test system: NCI-H460 lung
[45] = test system: DU-145 prostate
[46] = test system: SR leukemia
[47] = test system: SK-MEL-5 melanoma
[48] = test system: BT-549 breast
[49] = test system: OVCAR-8 ovarian
[50] = test system: NCI/ADR-RES ovarian
[51] = test system: SK-MEL-2 melanoma
[52] = test system: SNB-19 CNS
[53] = test system: K-562 leukemia

## CCC(=O)Nc1ccc(N2C(=O)/C(=C/c3ccc(OC)cc3)N=C2c2ccccc2)cc1
[1]
  GI50: 23.7 µM
  TGI: > 50 µM
[2]
  GI50: 22.2 µM
  TGI: > 50 µM
[3]
  GI50: 8.93 µM
  TGI: 33.7 µM
[4]
  GI50: 16.2 µM
  TGI: > 50 µM
[5]
  GI50: 14.1 µM
  TGI: > 50 µM
[6]
  GI50: 5.91 µM
  TGI: > 50 µM
[7]
  GI50: 5.46 µM
  TGI: 15.3 µM
[8]
  GI50: 6.27 µM
  TGI: 27 µM
[9]
  GI50: 22.8 µM
  TGI: > 50 µM
[10]
  GI50: 3.65 µM
  TGI: > 50 µM
[11]
  GI50: 42.9 µM
  TGI: > 50 µM
[12]
  GI50: 1.38 µM
  TGI: > 50 µM
[13]
  GI50: 48.5 µM
  TGI: > 50 µM
[14]
  GI50: 4.67 µM
  TGI: > 50 µM
[15]
  GI50: 4.31 µM
  TGI: 14.5 µM
[16]
  GI50: 6.4 µM
  TGI: 21.7 µM
[17]
  GI50: 6.86 µM
  TGI: > 50 µM
[18]
  GI50: 14.6 µM
  TGI: > 50 µM
[19]
  GI50: 0.0351 µM
  TGI: 21.1 µM
[20]
  GI50: 13.3 µM
  TGI: > 50 µM
[21]
  GI50: 14.1 µM
  TGI: > 50 µM
[22]
  GI50: 1.06 µM
  TGI: > 50 µM
[23]
  GI50: 30 µM
  TGI: > 50 µM
[24]
  GI50: 28 µM
  TGI: > 50 µM
[25]
  GI50: 4.88 µM
  TGI: > 50 µM
[26]
  GI50: 5.62 µM
  TGI: 16 µM
[27]
  GI50: 2.77 µM
  TGI: > 50 µM
[28]
  GI50: > 50 µM
  TGI: > 50 µM
[29]
  GI50: 8.6 µM
  TGI: 43.3 µM
[30]
  GI50: 20.5 µM
  TGI: > 50 µM
[31]
  GI50: 2.51 µM
  TGI: 13.2 µM
[32]
  GI50: 13.5 µM
  TGI: > 50 µM
[33]
  GI50: 1.66 µM
  TGI: 8.87 µM
[34]
  GI50: > 50 µM
  TGI: > 50 µM
[35]
  GI50: 11.3 µM
  TGI: > 50 µM
[36]
  GI50: 3.67 µM
  TGI: 17.7 µM
[37]
  GI50: > 50 µM
  TGI: > 50 µM
[38]
  GI50: 2.41 µM
  TGI: 8.9 µM
[39]
  GI50: 9.23 µM
  TGI: > 50 µM
[40]
  GI50: 16.5 µM
  TGI: > 50 µM
[41]
  GI50: 7.77 µM
  TGI: > 50 µM
[42]
  GI50: 10.4 µM
  TGI: > 50 µM
[43]
  GI50: 5.49 µM
  TGI: 16 µM
[44]
  GI50: 2.1 µM
  TGI: > 50 µM
[45]
  GI50: 10.4 µM
  TGI: > 50 µM
[46]
  GI50: 1.4 µM
  TGI: > 50 µM
[47]
  GI50: 7.16 µM
  TGI: > 50 µM
[48]
  GI50: 10.9 µM
  TGI: 36.4 µM
[49]
  GI50: 7.38 µM
  TGI: > 50 µM
[50]
  GI50: 9.77 µM
  TGI: > 50 µM
[51]
  GI50: > 50 µM
  TGI: > 50 µM
[52]
  GI50: 14.1 µM
  TGI: > 50 µM
[53]
  GI50: 5.57 µM
  TGI: > 50 µM
